Assay results: patent publication US20220151979A1, “COMPOSITION FOR PREVENTION OR TREATMENT OF CARDIOVASCULAR AND METABOLIC DISEASE COMPRISING NORANHYDROICARITIN” (SEOUL NATIONAL UNIVERSITY HOSPITAL, priority 2019, published 2022)

Tests used:
[1] = test system: PCSK9 promoter; experiment: PCSK9 promoter-reporter luciferase assay in HEK293T cells; assay type: cell-based, human; settings: pGL4.14-PCSK9-transfected HEK293T cells, 2.5-20 μM, 18 hours
Method: In order to confirm the PCSK9 gene expression inhibitory effect of noranhydroicaritin, HEK293T cells were treated with noranhydroicaritin at various concentrations, and it was confirmed whether the expression of PCSK9 was inhibited through a luciferase assay.
i) A primer was prepared to contain KpnI and XhoI restriction enzyme sites in the PCSK9 promoter gene region, and then PCR (polymerase chain reaction) and electrophoresis on an agarose gel were performed to isolate PCSK9 promoter region DNA. A pGL4.14-[luc2/Hygro] vector containing a firefly luciferase as a reporter gene was treated with the same restriction enzymes (KpnI and XhoI), and then isolated via agarose gel electrophoresis and gel extraction. […]
ii) In order to measure the transcriptional activity of the PCSK9 promoter gene, HEK293T cells were transfected with pGL4.14-PCSK9, and then the luciferase activity of the cell extract was measured. […]
iii) After 18 hours of incubation, cells were washed with PBS one time, an appropriate amount of luciferase reagent was added to each well, then the plate was shaken for 15 min, the supernatant was obtained, and the transcriptional activity was measured. Passive lysis buffer was used, and the luciferase activity was measured using a microplate luminometer (Tecan). […]

[2] = test system: MCP-1; experiment: Immunofluorescence of MCP-1 in carotid artery, mouse arteriosclerosis model; assay type: in vivo; settings: 10 μg/g/day
Method: Carotid artery ligation was performed one week after injection of AAV-PCSK9 Virus (1×10^11 IFU/mL) and noranhydroicaritin (10 μg/g/day). After 3 weeks of ligation, it was confirmed whether the atherosclerosis model was completed, and gross plaque imaging and immunofluorescence were performed to confirm the arteriosclerosis inhibitory effect of noranhydroicaritin.
Furthermore, the arteriosclerosis inhibitory effect of noranhydroicaritin was confirmed using immunofluorescence. Specifically, a mouse carotid artery was obtained and fixed in 4% PFA for one day, and then prepared into a block. As the inflammatory response in blood vessels progresses, the arteriosclerosis worsens, and thus the marker […] of macrophages causing arteriosclerotic inflammatory response and TNF-α, IL-1B, and MCP-1, which are pro-inflammatory cytokines secreted when the inflammatory response occurs, were stained. Staining was performed using the antibody for each of CAP1(1:200), PCSK9(1:100), F4/80(1:100), TNF-α(1:100), […], and MCP-1(1:100), then imaging was performed using a confocal microscope, and […] was evaluated.

[3] = test system: PCSK9; experiment: Immunoblot of PCSK9 in HepG2 cells, noranhydroicaritin and statin singly or in combination; assay type: cell-based, human; settings: treated singly
Method: The cells aliquoted by the method of Example 7 were treated with noranhydroicaritin or a statin (atorvastatin or rosuvastatin) singly or with noranhydroicaritin and a statin (atorvastatin or rosuvastatin) simultaneously, and the proteins were extracted. On an SDS-polyacrylamide gel, 30 μg of each protein was electrophoresed, and attached to a membrane, and then protein expression levels were confirmed using the respective antibodies: phospho-AMPK, PCSK9, LDLR, and PPARγ.

[4] = test system: HepG2 cells; experiment: MTT cell viability of HepG2 cells; assay type: cell-based, human
Method: In order to confirm the toxicity of noranhydroicaritin to cells, HepG2 cells (human liver hepatocellular carcinoma) were treated with each of kaempferol and noranhydroicaritin at various concentrations, and the cell viability of HepG2 cells at each concentration was calculated through the MTT screening method.
Specifically, HepG2 cells were suspended in DMEM (Welgene Inc.) medium containing 10% fetal bovine serum at a concentration of 1×10^5 cells/mL, and 100 μL thereof was inoculated into each well of a 96-well plate. After 4 hours, the HepG2 cells in the well plate were treated with each of kaempferol and noranhydroicaritin samples at concentrations of 2.5 μM, 5 μM, 10 μM, and 20 μM. After incubation for 24 hours, 5 μL of MTT (5 mg/mL) was added to the well plate, and the cells were further incubated for 4 hours. Thereafter, the medium was removed, 100 μL of DMSO was added to the well plate, the reaction was conducted, and then the absorbance was measured at 570 nm. As a control, cholesterol synthesis inhibitors atorvastatin (Ato) and rosuvastatin (Ros) were used. The cell viability was calculated according to the following mathematical formula as a value relative to 100% of the value for the negative control treated only with DMSO. The results are illustrated in FIG. 1. […]

[5] = test system: PPARγ; experiment: PPARγ expression in HepG2 cells (RealTime-PCR, immunohistochemistry); assay type: cell-based, human
Method: In order to confirm the effect of increasing the expression of PPARα and PPARγ of noranhydroicaritin, PCR using PPARα primers and immunohistochemistry targeting PPARα and PPARγ were performed to confirm the expression levels.
Using cDNA synthesized with RNA according to the method of Example 4, the quantities of PPARα mRNA and PPARγ mRNA were confirmed through RealTime-PCR analysis. The group treated only with DMSO was used as a negative control. For immunohistochemistry, HepG2 cells were attached to a slide chamber, then treated with noranhydroicaritin at 20 μM, and incubated. After fixation with formalin, the HepG2 cells were stained with antibodies targeting PPARα and PPARγ, and treated with DAPI to stain nuclei, and the degree of fluorescent expression was confirmed using a confocal microscope.

## CC(C)=CCc1c(O)cc(O)c2c(=O)c(O)c(-c3ccc(O)cc3)oc12 [Noranhydroicaritin, noranhydroicaritin]
[1]
  PCSK9 luciferase activity: decreased in a noranhydroicaritin concentration-dependent manner
[2]
  expression of MCP-1 (immunofluorescence): decreased
[3]
  quantity of PCSK9 (immunoblot): decreased
[4]; 20 μM, 24 hours, MTT, relative to DMSO negative control
  cell viability: ≥ 90%
[4]; same concentration as atorvastatin or rosuvastatin
  cell viability compared with control: higher than the cell viability of the cells treated with atorvastatin or rosuvastatin
[5]
  expression of PPARγ: increased in a concentration-dependent manner
